Reference: patent US20220193180A1, “AGING PROGRESSION SUPPRESSING AGENT, AND FOOD OR BEVERAGE PRODUCT COMPRISING SAME” (NITTA GELATIN INC., priority 2019, published 2022)
Where no end group is shown, it is not given here. [ ]: non-standard residue; d: D form. Hyp = O=C(O)[C@@H]1C[C@@H](O)CN1

Tests used:
[1] = tested on: glutathione synthetase gene; test: Gene expression test: mRNA level of glutathione synthetase gene in epidermal cells (RT-PCR, corrected with GAPDH); assay type: cell-based, human; conditions: NHEK cells, 1 mM final concentration, 72 hours; for Gene expression increase rate (glutathione synthetase gene): control = 100
Protocol: (§1) First, normal human epidermal keratinocytes NHEK (NB) (manufactured by KURABO INDUSTRIES LTD.) were obtained as epidermal cells. The cells were seeded in a necessary number of commercially available dishes of ϕ60 mm at 1.25×10^4 cells per dish (5 mL of a cell dispersion liquid having a concentration of 0.25×10^4 cells/mL), and cultured in a serum-free medium (trade name: “HuMedia KG-2”, manufactured by KURABO INDUSTRIES LTD.) for 2 days. Then, the cells were confirmed to be subconfluent in the dishes, and the medium in the dishes was then replaced by a basal medium (trade name: “HuMedia KB-2”, manufactured by KURABO INDUSTRIES LTD.). In this way, epidermal cells for evaluating the mRNA level of the type 17 collagen gene and the mRNA level of the glutathione synthetase gene were prepared.
(§2) To the basal medium in the dishes, the peptide or the collagen peptide mixture was added to the concentrations shown in Tables 1 to 4, and the cells were cultured at 37° C. in an atmosphere at a carbon dioxide concentration of 5 vol % for 72 hours to prepare samples to be subjected to a gene expression test. In addition, a control sample obtained by adding only ion-exchanged water to the basal medium in the dish (hereinafter, also referred to as “Blank”) was prepared. This control sample was also cultured at 37° C. in an atmosphere at a carbon dioxide concentration of 5 vol % for 72 hours.
Next, by using a RNA extraction kit (trade name: “TRIzol (registered trademark) Reagent, manufactured by Life Technologies Japan Ltd.) in accordance with the protocol accompanying the kit, total RNA was extracted from the epidermal cells in the dish to obtain an extract containing total RNA for each sample. Subsequently, by using a cDNA preparation kit (trade name (product number): “High Capacity RNA-to-cDNA Kit (4387406)”, manufactured by Life Technologies Japan Ltd.) in accordance with the protocol accompanying the kit, reverse transcription was performed on RNA in the extract to obtain cDNA from the RNA in the extract. […]
In the RT-PCR, the mRNA levels of type 17 collagen (manufactured by Life Technologies Japan Ltd., primer: Hs009900361_ml) as a target gene and glutathione synthetase (GSS, manufactured by Life Technologies Japan Ltd., primer: Hs01547656_ml) were measured. […]
First, in the samples and the control sample, the mRNA levels (gene expression levels) of the two target genes (type 17 collagen and glutathione synthetase) were each calculated. […] Specifically, values obtained by dividing the mRNA levels of the two target genes by the mRNA level of GAPDH (relative values) were each determined.
Then, the ratio of the correction value obtained in each sample to the correction value in the control sample, which was defined as 100, was determined (gene expression increase rate (%)). […]

[2] = tested on: type 17 collagen gene; test: Gene expression test: mRNA level of type 17 collagen gene in epidermal cells (RT-PCR, corrected with GAPDH); assay type: cell-based, human; parameters: key to Assessment (promoting action on type 17 collagen gene expression): samples with “++” were determined to have a significance in the promoting action on expression of the gene; In samples with “+”, the gene expression increase rate (%) exceeded 100; Samples with “−” were determined to have no significance in the promoting action on expression of the gene; conditions: NHEK cells; for Assessment (promoting action on type 17 collagen gene expression) / Gene expression increase rate (type 17 collagen gene): 1 mM final concentration, 72 hours; for Gene expression increase rate (type 17 collagen gene): control = 100
Protocol: as §1, §2
Next, by using a RNA extraction kit (trade name: “TRIzol (registered trademark) Reagent, manufactured by Life Technologies Japan Ltd.) in accordance with the protocol accompanying the kit, total RNA was extracted from the epidermal cells in the dish to obtain an extract containing total RNA for each sample. Subsequently, by using a cDNA preparation kit (trade name (product number): “High Capacity RNA-to-cDNA Kit (4387406)”, manufactured by Life Technologies Japan Ltd.) in accordance with the protocol accompanying the kit, reverse transcription was performed on RNA in the extract to obtain cDNA from the RNA in the extract. Further, real-time (RT)-PCR was performed on the cDNA by a DNA amplifying apparatus (trade name: “Step One Plus (TM) Real-Time PCR System”, manufactured by Applied Biosystems Inc.).
In the RT-PCR, the mRNA levels of type 17 collagen (manufactured by Life Technologies Japan Ltd., primer: Hs009900361_ml) as a target gene and glutathione synthetase (GSS, manufactured by Life Technologies Japan Ltd., primer: Hs01547656_ml) were measured. As an internal standard (correction gene), GAPDH was selected. For calculation of the mRNA level, a calibrated curve method was used. As the primer and the probe for the RT-PCR, those accompanying a reagent kit (trade name: “TaqMan (registered trademark) Gene Expression Assays, manufactured by Applied Biosystems Inc.) were used.
First, in the samples and the control sample, the mRNA levels (gene expression levels) of the two target genes (type 17 collagen and glutathione synthetase) were each calculated. Next, the mRNA levels of the two target genes were corrected with the mRNA level of GAPDH as a correction gene to obtain correction values in the samples and the control sample. Specifically, values obtained by dividing the mRNA levels of the two target genes by the mRNA level of GAPDH (relative values) were each determined.
Then, the ratio of the correction value obtained in each sample to the correction value in the control sample, which was defined as 100, was determined (gene expression increase rate (%)).
Further, the gene expression increase rate (%) was subjected to statistical processing to evaluate significance of the promoting action on gene expression of the type 17 collagen gene and the glutathione synthetase gene in each sample. […]

Row | Substance | Assessment (promoting action on glutathione synthetase gene expression) [1] | Gene expression increase rate (glutathione synthetase gene) [1] [%] | Assessment (promoting action on type 17 collagen gene expression) [2] | Gene expression increase rate (type 17 collagen gene) [2] [%] | promoting action on type 17 collagen gene expression (in words) ([2]; discussion of Table 1)
1 | Glu-[Hyp]-Gly [EOG] | + (In samples with “+”, the gene expression increase rate (%) exceeded 100) | 131 ± 10 | + (In samples with “+”, the gene expression increase rate (%) exceeded 100) | 144 ± 17.01 | 
2 | Gly-Pro [GP] | + (In samples with “+”, the gene expression increase rate (%) exceeded 100) | 106 ± 2 | ++ | 201 ± 8.42 | 
3 | Glu-Hyp [EO, reference compound] |  |  | − | 100 ± 6.46 | did not exhibit an evident promoting action
